This is an account of results in patent US20260174783A1, “HALOBETASOL PROPIONATE-LIDOCAINE FORMULATIONS” (priority 2023, published 2026).

This series is described as follows: In vitro permeation test: delivery of Halobetasol Propionate to the skin. In kind it is in vitro ADME. The note with it: Formulations 1 and 2. An excerpt:
The ability of the formulations of the present invention to deliver the APIs to their active sites was investigated by in vitro permeation tests.

For `CCC(=O)O[C@]1(C(=O)CCl)[C@@H](C)C[C@H]2[C@@H]3C[C@H](F)C4=CC(=O)C=C[C@]4(C)[C@@]3(F)[C@@H](O)C[C@@]21C` [Halobetasol Propionate, (6α, 11β, 16β)-21-Chloro-6,9-difluoro-11-hydroxy-16-methyl-17-(1-oxopropoxy) pregna-1,4-diene-3,20-dione], the “Halobetasol Propionate receiver media concentration” value was “no receiver media concentration”.
